The results in this text go back to PubChem BioAssay (NCI).

Values joined by “and” are separate entries in the source; they are usually repeats but may differ in a detail not shown here. Identical values can stand only once.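 The compound was tested at five concentrations on cells cultured in 96-well plates, with a 48-hour exposure period. TGI: concentration producing complete growth inhibition.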 Some results are limits rather than exact numbers.

Holding throughout (experiment): DTP human tumour cell line panel, 48 h
Assay [1] has as its system UACC-62 melanoma.
The subject of assay [2] is MDA-N.
Assay [3] relates to NCI-H226 lung.
Assay [4] has as its system SK-MEL-2 melanoma.
The test system of assay [5] is DU-145 prostate.
Assay [6] relates to MALME-3M melanoma.
In assay [7] the test system is HL-60(TB) leukemia.
Assay [8] has as its system 786-0 renal.
Assay [9] deals with COLO 205 colon.
Assay [10] has as its system T-47D breast.
Assay [11] concerns OVCAR-8 ovarian.
The test system of assay [12] is TK-10 renal.
Assay [13] relates to SK-MEL-5 melanoma.
Assay [14] deals with OVCAR-3 ovarian.
Assay [15] concerns UO-31 renal.
The subject of assay [16] is K-562 leukemia.

Regarding `O=c1cc(-c2ccccc2)oc2ccc(Oc3nnnn3-c3ccccc3)cc12`, the total growth inhibition concentration (TGI) was over 100 µM in assay [1]; over 100 µM in [2]; over 100 µM in assay [3]; over 84.5 µM in assay [4]; over 100 µM in assay [5]; over 100 µM in assay [6]. In addition, the TGI in assay [7], in assay [8], in assay [9], in assay [10], in [11] and in [12] was over 100 µM each time. In addition, the TGI in assay [13], in [14], in assay [15] and in assay [16] was over 100 µM in each case.
Turning to `CN(C)C=Nc1cccc2cnccc12`, the TGI in [1], in [2], in assay [3], in assay [4], in assay [5] and in [6] was over 100 µM throughout. For the same molecule, the TGI in [7], in assay [8], in assay [9], in assay [10], in [11] and in assay [12] was over 100 µM each time. Moreover, the concentration for total growth inhibition (TGI) in assay [13], in assay [14], in assay [15] and in assay [16] was over 100 µM throughout.
`CC(=O)NCCc1c[nH]c2ccc(Cl)cc12`: the concentration for total growth inhibition (TGI) in assay [1], in assay [2], in [3], in assay [4], in [5] and in assay [6] was over 100 µM in each case. Further, the concentration for total growth inhibition (TGI) in assay [7], in [8], in assay [9], in assay [10], in [11] and in assay [12] was over 100 µM in each case. In addition, the TGI in assay [13], in [14], in [15] and in assay [16] was over 100 µM throughout.
`CCOC(=O)c1cccc([N+](=O)[O-])c1N`: the total growth inhibition concentration (TGI) in assay [1], in assay [2], in assay [3], in assay [4], in assay [5] and in assay [6] was over 100 µM throughout. In addition, the TGI in assay [7], in [8], in assay [9], in assay [10], in assay [11] and in [12] was over 100 µM each time. Further, the TGI in assay [13], in assay [14], in assay [15] and in assay [16] was over 100 µM throughout.
Take `CN(C)CCCNc1nnc(NCCCN(C)C)c2c(=O)c3sccc3[nH]c12`: the TGI was 23.7 µM in assay [1]; 14.9 µM in assay [2]; 39.1 µM in [3]; 37.8 µM in assay [4]; over 100 µM in assay [5]; 35.5 µM in assay [6]. For the same molecule, the TGI was over 28.2 µM in assay [7]; over 49.1 µM in [8]; over 20.2 µM in [9]; over 51.5 µM in assay [10]; over 100 µM in [11]; over 100 µM in [12]. Besides, the TGI in assay [13] was 16 µM; in [14], over 100 µM; in [15] it was 9.15 µM; in [16] it was over 34.7 µM.
As to `CN1CCN(C(=S)N(C(=O)c2ccco2)c2ccccc2)CC1`, the TGI in assay [1], in assay [2], in [3], in [4], in assay [5] and in [6] was over 100 µM in each case. Further, the TGI in assay [7], in [8], in [9], in assay [10], in [11] and in [12] was over 100 µM in each case. Moreover, the TGI in [13], in [14], in [15] and in assay [16] was over 100 µM each time.
In the case of `CCCN(CCCCN1C(=O)c2ccccc2C1=O)CC1COc2ccccc2O1` (centres undefined), the TGI in [1], in [2], in [3], in assay [4], in [5] and in assay [6] was over 100 µM each time. Also, the TGI was 95.9 µM in assay [7]; over 100 µM in assay [8]; over 100 µM in [9]; over 100 µM in [10]; over 100 µM in assay [11]; over 100 µM in assay [12]. Further, the TGI in assay [13], in [14], in [15] and in [16] was over 100 µM throughout.
Regarding `COc1ccccc1S(=O)Nc1ccccc1` (centres undefined), the TGI in [1], in assay [2], in [3], in assay [4], in assay [5] and in assay [6] was over 100 µM each time. For the same molecule, the TGI was over 100 µM in assay [7]; over 100 µM in assay [8]; over 100 µM in assay [9]; 95.5 µM in assay [10]; over 100 µM in assay [11]; over 100 µM in [12]. For the same molecule, the TGI in assay [13], in assay [14], in [15] and in assay [16] was over 100 µM throughout.
On to `N=C(N)n1[nH]c2c(c1=O)CCCC2`, for which the TGI in [1], in [2], in assay [3], in assay [4], in assay [5] and in assay [6] was over 100 µM throughout. Further, the concentration for total growth inhibition (TGI) in assay [7], in assay [8], in [9], in assay [10], in assay [11] and in assay [12] was over 100 µM in each case. Further, the TGI in [13], in [14], in [15] and in assay [16] was over 100 µM each time.
In the case of `COc1ccc(-n2c(C)nc3ccc(NC4OCC(O)C(O)C4O)cc3c2=O)cc1` (centres undefined), the TGI in assay [1], in assay [2], in assay [3], in assay [4], in assay [5] and in [6] was over 100 µM each time. In addition, the concentration for total growth inhibition (TGI) in assay [7] was 62.4 µM and 68.2 µM; in [8], over 100 µM; in [9] it was over 100 µM; in [10], over 100 µM; in assay [11], 94.6 µM and 82.3 µM; in assay [12] it was over 100 µM. In addition, the TGI in assay [13] is over 100 µM; in [14], over 100 µM; in assay [15], over 100 µM; in assay [16], 87.2 µM and 95.1 µM.
Consider `CCN(CC)Cc1nc(C2CCC([N+](=O)[O-])O2)no1` (centres undefined), for which the TGI in assay [1] was 30.7 µM; in [2], 37.5 µM; in assay [3], over 100 µM; in assay [4] it was 72.6 µM; in [5] it was over 100 µM; in assay [6], 30.1 µM. In addition, the TGI was 40.5 µM in assay [7]; over 100 µM in [8]; 30.3 µM in [9]; 98 µM in assay [10]; over 100 µM in assay [11]; over 100 µM in [12]. Besides, the TGI in assay [13] was 30.2 µM; in assay [14], 56.7 µM; in assay [15], over 100 µM; in assay [16], over 100 µM.
In the case of `CN(C)CCNC(=O)c1cccc2nc3cccc(F)c3nc12`, the TGI in assay [1] is over 19.8 µM; in assay [2], 3.13 µM; in assay [3], 3.21 µM; in [4], 4.86 µM; in [5], 12.9 µM; in [6], 6.35 µM. The TGI in assay [7] was 6.39 µM; in assay [8], 24.8 µM; in assay [9] it was 1.89 µM; in [10], over 28.4 µM; in assay [11], 3.68 µM; in [12], 6.45 µM. The total growth inhibition concentration (TGI) in assay [13] was found to be 2.38 µM; in assay [14], 8.97 µM; in assay [15], 4.83 µM; in [16], 12.3 µM.
`COC(=O)NN=C(c1ccc(Cl)cc1)c1ccc(Cl)cc1`: the TGI in assay [1], in assay [2], in [3], in assay [4], in assay [5] and in [6] was over 100 µM each time. Besides, the TGI in [7], in [8], in [9], in assay [10], in assay [11] and in [12] was over 100 µM each time. The TGI in assay [13], in assay [14], in [15] and in assay [16] was over 100 µM throughout.
On to `c1ccc2sc(C3(N4CCCCC4)CCCCCC3)cc2c1`, for which the total growth inhibition concentration (TGI) was 80.4 µM in assay [1]; over 100 µM in assay [2]; 33.7 µM in assay [3]; 68.4 µM in assay [4]; over 100 µM in assay [5]; 53.9 µM in assay [6]. For the same molecule, the TGI in assay [7] was determined as 11.4 µM; in assay [8], 47.4 µM; in assay [9], 31.8 µM; in assay [10], 31.6 µM; in [11], 72.5 µM; in assay [12] it was 49.2 µM. Besides, the TGI in [13] was determined as 31.3 µM; in [14], 37.2 µM; in [15], 60.8 µM; in [16] it was 31 µM.

Usually TGI stands for the concentration at which net growth stops. Low readings indicate greater sensitivity of the cells, high ones lower sensitivity of the cells.
